The text below walks through data of patent US8551961B2, “Localized delivery of cardiac inotropic agents” (Massachusetts Institute of Technology, priority 2005, dated 2013).

Entries after “also recorded” stand apart in the source; their conditions may differ.

The subject of the series is Sprague Dawley rats. The experiment in a line: Pericardial application of dobutamine to the left ventricular free wall in anesthetized rats, hemodynamic recording. Type of series: in vivo, rat. The text has this: Sprague Dawley rats ([…]) were anesthetized with an intraperitoneal injection of ketamine and xylazine. The rat was laid on a heating pad and maintained euthermic with warming lights. A 24 gauge intravenous catheter was placed in the tail vein and Ringer's lactate solution (LR) was infused at 10 cc/hr. The trachea was exposed through a vertical incision and cannulated with a 16 gauge blunt cannula that served as an endotracheal tube. The tube was connected to a ventilator for control of ventilation and respiration. The respiratory rate was set to 60 breaths per minute, inspiratory to expiratory time was set to 1:2 and inspiratory flow was 2 liters per minute. A midline sternotomy was performed, the heart exposed and the pericardium resected. The right carotid artery was dissected clean of fascia and care was taken to preserve the adjacent vagus nerve. A polyethelene (PE-50) cannula was inserted via an arteriotomy into the carotid artery and advanced through the ascending aorta into the left ventricle. This ventricular cannula was connected to a high fidelity pressure transducer and digital data acquisition system to record hemodynamic measures. Heart rate (HR), left ventricular systolic blood pressure (SBP), and the maximum rate of change of blood pressure in the left ventricle during isovolemic contraction (dp/dt max) was all recorded. The dp/dt max is the gold standard index of myocardial contractility.
Following cannulation the rat was stabilized for 30 minutes. Five-second recordings of HR, SBP and dp/dt max were captured every 3 to 5 minutes. SBP and dp/dt max were averaged over all the beats captured in the 5-second interval. Dobutamine (313 mcg/ml), a potent beta agonist inotropic agent, was delivered to the left ventricular free wall through the sternotomy using an infusion pump connected to a 24 gauge IV cannula that was suspended directly over the heart (4 mcg/min, 0.8 ml/hr). […] After 30 minutes the pericardial application of dobutamine was terminated and hemodynamic measurements were recorded for an additional 30 minutes.

In the case of `CC(CCc1ccc(O)cc1)NCCc1ccc(O)c(O)c1` (stereo not drawn) [dobutamine], the “Left ventricular systolic blood pressure / systemic blood pressure” value (dobutamine 4 mcg/min for 30 minutes, local pericardial delivery, FIG. 2) is on record as “increased”. The Heart rate result (dobutamine 4 mcg/min for 30 minutes, topical application to the heart, FIG. 3) is given as “increased”. For the same compound, the “Contractility (max dp/dt of left ventricular pressure during isovolemic contraction)” value (dobutamine 313 mcg/ml, 4 mcg/min (0.8 ml/hr) for 30 minutes, applied directly to left ventricular free wall, FIG. 1) is reported as “increased significantly; also recorded: significantly increased”.
